Assay results reported in patent US9566261B2 (priority 2013, dated 2017).

Test system: lithium-pilocarpine treated rats
Test: Morris water maze using pilocarpine-induced status epilepticus (SE)
Format: in vivo
From the text: To assess spatial memory and learning in lithium-pilocarpine treated animals and to identify novel compounds that might ameliorate cognitive deficits and neuronal loss associated with pilocarpine-induced status epilepticus (SE). Morris water maze has been used extensively in the study of learning and memory. This test uses a round pool of water in which an escape platform is submerged beneath the surface. The task is to find the hidden platform using only extra maze visual cues (Morris, 1984). Learning can be assessed by quantifying the time that an animal takes to find the platform (latency) over a number of independent trials. […]
Twenty four hours prior to pilocarpine administration, rats were weighed and given lithium chloride (127 mg/kg; i.p.). On the next day, they received pilocarpine hydrochloride (50 mg/kg; i.p.) and were monitored carefully for behavioral seizures. […] All animals were observed and scored for seizure severity for an additional 1.5 hr. […] In our spatial learning protocol rats, received 4 training trials per day wherein the outcome measure evaluated was their ability to find the hidden platform. […] On each of the trials, rats were placed in the water facing the wall at one of the 4 randomly determined starting locations (north, west, east or south) and allowed 120 sec to find the platform. […]

SMILES: C[C@H](OC(N)=O)[C@@H](O)c1ccccc1Cl [Compound 1, 1-(2-chlorophenyl)-(S)-1-hydroxypropyl-(S)-2-carbamate]
- average time to find the escape platform (latency) (65 mg/kg i.p. 15 minutes after the first stage 3 seizure, vs pilocarpine alone group, FIG. 3): significant difference in the Pilo+Compound 1 group as compared to the pilocarpine alone group
- mortality (125 mg/kg administered 30 min after the first convulsive seizure): death of all animals
